From patent US9776972B2, “Pyrazole derivatives as arginine methyltransferase inhibitors and uses thereof” (priority 2013, dated 2017)

Columns and labels:
human PRMT1 = target: T1, human PRMT1 (Homo sapiens, UniProt Q99873); experiment: PRMT1 Biochemical Assay (3H-SAM Flashplate, peptide substrate); settings: single experiment or average of multiple experiments
T1 construct: GST-tagged PRMT1; made in house; host or cells: High Five insect cells (baculovirus)
How it was run: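 GST-tagged PRMT1 from baculovirus-infected cells, preincubated with compounds 30 min at room temperature in 20 mM Bicine pH 7.6, 1 mM TCEP, 0.005% BSG, 0.002% Tween 20. Reaction started with ³H-SAM plus biotinylated peptide, stopped with 300 µM cold SAM.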

human PRMT8 = human PRMT8 (Homo sapiens, UniProt Q9NR22); experiment: PRMT8 Biochemical Assay (3H-SAM Flashplate, peptide substrate); settings: single experiment or average of multiple experiments
How it was run: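 Methylation of a biotin-tagged histone H4 peptide (residues 31-45) by recombinant PRMT8 was measured as 3H transfer from 3H-SAM, after a 30 min room-temperature compound preincubation in Bicine buffer pH 7.6. Reactions were quenched with unlabelled SAM to 400 uM final, then bound counts were read by streptavidin Flashplate. IC50 came from a Hill fit of % inhibition relative to max and SAH min controls.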

Chain of human PRMT8 (Q9NR22 whole entry, the tested form may be a part): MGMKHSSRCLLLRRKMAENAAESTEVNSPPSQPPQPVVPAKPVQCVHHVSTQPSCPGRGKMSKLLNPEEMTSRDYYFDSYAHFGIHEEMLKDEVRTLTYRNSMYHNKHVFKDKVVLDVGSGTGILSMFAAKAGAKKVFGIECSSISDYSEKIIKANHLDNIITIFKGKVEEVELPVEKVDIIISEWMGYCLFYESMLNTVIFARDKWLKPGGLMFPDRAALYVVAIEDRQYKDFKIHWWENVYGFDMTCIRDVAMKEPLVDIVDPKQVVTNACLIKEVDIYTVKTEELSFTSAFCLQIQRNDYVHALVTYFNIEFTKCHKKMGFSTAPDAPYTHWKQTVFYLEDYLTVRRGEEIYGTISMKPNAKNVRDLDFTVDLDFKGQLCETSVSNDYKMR
T1 sequence (Q99873 with tags, fused parts or gaps): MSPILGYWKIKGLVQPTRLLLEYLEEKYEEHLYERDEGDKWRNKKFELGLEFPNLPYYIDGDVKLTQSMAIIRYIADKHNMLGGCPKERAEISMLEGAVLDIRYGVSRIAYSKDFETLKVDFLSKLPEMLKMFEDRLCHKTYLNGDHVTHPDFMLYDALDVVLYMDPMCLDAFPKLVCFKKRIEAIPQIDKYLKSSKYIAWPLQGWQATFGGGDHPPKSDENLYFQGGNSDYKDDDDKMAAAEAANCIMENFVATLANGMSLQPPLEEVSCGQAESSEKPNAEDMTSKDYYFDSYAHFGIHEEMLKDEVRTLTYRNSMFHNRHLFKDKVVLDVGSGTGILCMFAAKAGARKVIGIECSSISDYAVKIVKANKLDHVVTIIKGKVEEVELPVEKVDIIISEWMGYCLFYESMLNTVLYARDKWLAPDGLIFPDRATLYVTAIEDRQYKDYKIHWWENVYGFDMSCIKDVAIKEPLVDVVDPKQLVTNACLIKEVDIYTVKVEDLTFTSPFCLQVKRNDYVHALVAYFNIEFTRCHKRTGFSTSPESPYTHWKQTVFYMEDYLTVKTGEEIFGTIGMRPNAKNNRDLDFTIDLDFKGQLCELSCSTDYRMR

Row | SMILES | IC50 (human PRMT1) | IC50 (human PRMT8)
1 | CNCCN(C)Cc1cn(C2CC2)nc1-c1ccc(F)cc1 [Compound 13] | 1500 nM | –
2 | CNCCN(C)Cc1cnn(C2CC2)c1-c1ccc(F)cc1 [Compound 14] | 123 nM | 1380 nM
3 | CNCCN(C)Cc1cn(C(C)C)nc1-c1ccc(F)cc1 [Compound 15] | 4380 nM | –
4 | CNCCN(C)Cc1cnn(C(C)C)c1-c1ccc(F)cc1 [Compound 16] | 2070 nM | –
5 | CNCCN(C)Cc1cn[nH]c1-c1ccc(C#N)cc1 [Compound 17] | 13.8 nM | 89.1 nM
6 | CNCCN(C)Cc1cn[nH]c1-c1cc(F)cc(F)c1 [Compound 18] | 36.2 nM | 483 nM
7 | CN(CCN)Cc1n[nH]cc1-c1ccc(C2CCOCC2)cc1 [Compound 145] | 20.1 nM | 167 nM
8 | COc1ccc(-c2n[nH]cc2CN(C)CCN)c(Cl)c1 [Compound 146] | 46.3 nM | 1120 nM
9 | CN(CCN)Cc1c[nH]nc1-c1cc(C#N)ccc1Cl [Compound 147] | 2860 nM | –
10 | CN(CCN)Cc1c[nH]nc1-c1ccc(C(F)(F)F)cc1F [Compound 148] | 121 nM | 809 nM
11 | CN(CCN)Cc1c[nH]nc1-c1cccc(N(C)C)c1 [Compound 149] | 61 nM | 910 nM
12 | CCOC(=O)c1cccc(-c2n[nH]cc2CN(C)CCN)c1 [Compound 150] | 71.5 nM | 566 nM
13 | COc1cc(F)ccc1-c1n[nH]cc1CN(C)CCN [Compound 151] | 122 nM | 1370 nM
14 | Cc1cc(F)ccc1-c1n[nH]cc1CN(C)CCN [Compound 152] | 47.2 nM | 983 nM
15 | COc1ccc(-c2n[nH]cc2CN(C)CCN)cc1 [Compound 153] | 21.8 nM | 132 nM
16 | COc1ccc(-c2n[nH]cc2CN(C)CCN)c(C(F)(F)F)c1 [Compound 154] | 660 nM | 6170 nM
17 | COc1ccc(-c2n[nH]cc2CN(C)CCN)c(C)c1 [Compound 155] | 59.9 nM | 977 nM
18 | CN(CCN)Cc1c[nH]nc1-c1cc(Cl)ccc1F [Compound 156] | 243 nM | 1710 nM
19 | COc1ccc(Cl)cc1-c1n[nH]cc1CN(C)CCN [Compound 157] | 1540 nM | 5820 nM
20 | Cc1ccc(C#N)cc1-c1n[nH]cc1CN(C)CCN [Compound 158] | 2330 nM | –
21 | Cc1ccc(F)cc1-c1n[nH]cc1CN(C)CCN [Compound 159] | 71.9 nM | 879 nM
22 | COc1ccc(F)cc1-c1n[nH]cc1CN(C)CCN [Compound 160] | 167 nM | 3010 nM
23 | Cc1ccccc1-c1n[nH]cc1CN(C)CCN [Compound 161] | 187 nM | 2100 nM
24 | Cc1ccc(-c2n[nH]cc2CN(C)CCN)cc1 [Compound 162] | 17 nM | 273 nM
25 | CCN(C)C(=O)c1ccc(-c2n[nH]cc2CN(C)CCN)cc1 [Compound 163] | 115 nM | 1430 nM
26 | CC(C)CN(C)C(=O)c1ccc(-c2n[nH]cc2CN(C)CCN)cc1 [Compound 164] | 107 nM | 2180 nM

Row | SMILES | IC50 (human PRMT1) | IC50 (human PRMT8)
27 | CCOc1ccc(-c2n[nH]cc2CN(C)CCN)cc1 [Compound 166] | 7.27 nM | 191 nM
28 | COCCOc1ccc(-c2n[nH]cc2CN(C)CCN)cc1 [Compound 167] | 9.28 nM | 284 nM
29 | Cc1[nH]nc(-c2ccc(F)cc2)c1CN(C)CCN [Compound 169] | 307 nM | 2990 nM
30 | CC(C)Cc1ccc(-c2c[nH]nc2CN(C)CCN)cc1 [Compound 170] | 11.4 nM | 160 nM
31 | NCCN(CCO)Cc1c[nH]nc1-c1ccc(F)cc1 [Compound 171] | 929 nM | 2630 nM
32 | CN(CCN)Cc1c[nH]nc1-c1ccc(OCCN2CCOCC2)cc1 [Compound 172] | 227 nM | 3260 nM
33 | CN(CCN)Cc1c[nH]nc1-c1ccc2c(c1)NC(=O)CO2 [Compound 173] | 167 nM | 3080 nM
34 | CNCCN(C)Cc1c[nH]nc1-c1ccc(C(F)(F)F)cc1 [Compound 174] | 11.9 nM | 228 nM
35 | CNCCN(C)Cc1c[nH]nc1-c1ccc(OC2CCOCC2)cc1 [Compound 175] | 10.5 nM | –
36 | CC(C)Oc1ccc(-c2nn(C)cc2CN(C)CCN)cc1 [Compound 176] | 11.6 nM | –
37 | CC(C)Oc1ccc(-c2c(CN(C)CCN)cnn2C)cc1 [Compound 177] | 10 nM | –
38 | CN(CCN)Cc1c[nH]nc1-c1ccc(OC2CCOCC2)cc1 [Compound 178] | 8.28 nM | –
39 | COCCCOc1ccc(-c2n[nH]cc2CN(C)CCN)cc1 [Compound 179] | 17.3 nM | –
40 | CNCCN(C)Cc1c[nH]nc1-c1ccc(OC(C)C)c(F)c1 [Compound 181] | 4.96 nM | –
41 | CNCCN(C)Cc1c[nH]nc1-c1ccc(Cl)c(F)c1 [Compound 182] | 4.75 nM | 271 nM
42 | CN(CCN(C)C1CC1)Cc1c[nH]nc1-c1ccc(C#N)cc1 [Compound 184] | 1600 nM | 3030 nM
43 | CN(CCN1CCC1)Cc1c[nH]nc1-c1ccc(C#N)cc1 [Compound 185] | 1120 nM | 4370 nM
44 | CC(C)Oc1cccc(-c2n[nH]cc2CN(C)CCN)c1 [Compound 187] | 146 nM | 1700 nM
45 | CC(C)Oc1cc(-c2n[nH]cc2CN(C)CCN)ccc1F [Compound 188] | 163 nM | 2890 nM
46 | CCC(=O)N1CCN(c2ccc(-c3n[nH]cc3CN(C)CCN)cc2)CC1 [Compound 189] | 475 nM | 2990 nM
47 | CC(C)CN1C(=O)COc2ccc(-c3n[nH]cc3CN(C)CCN)cc21 [Compound 191] | 655 nM | 4110 nM
48 | CN(CCN)Cc1c[nH]nc1-c1ccc2c(c1)OCC(=O)N2C [Compound 192] | 121 nM | 2010 nM
49 | CC(C)CN1C(=O)COc2cc(-c3n[nH]cc3CN(C)CCN)ccc21 [Compound 193] | 63.4 nM | 845 nM
50 | CN(CCN)Cc1c[nH]nc1-c1ccc(OCCO)cc1 [Compound 194] | 14.2 nM | 374 nM
51 | CN(CCN)Cc1c[nH]nc1-c1ccc(OCCCO)cc1 [Compound 195] | 11.4 nM | 402 nM
52 | CN(CCN)Cc1c[nH]nc1-c1ccc2c(c1)N(C)C(=O)CO2 [Compound 196] | 210 nM | 2580 nM

Row | SMILES | IC50 (human PRMT1) | IC50 (human PRMT8)
53 | CCNC(=O)c1cccc(-c2n[nH]cc2CN(C)CCN)c1 [Compound 197] | 678 nM | 2100 nM
54 | CCN(C)C(=O)c1cccc(-c2n[nH]cc2CN(C)CCN)c1 [Compound 198] | 2170 nM | –
55 | Cc1cc(-c2n[nH]cc2CN(C)CCN)cc(C)c1OC(C)C [Compound 199, N^1-((3-(4-isopropoxy-3,5-dimethylphenyl)-1H-pyrazol-4-yl)methyl)-N^1-methylethane-1,2-diamine] | 15.1 nM | 459 nM
56 | CN(CCN)Cc1c[nH]nc1-c1ccc(Oc2ccccc2)c(C#N)c1 [Compound 202] | 4.27 nM | 187 nM
57 | CN(CCN)Cc1n[nH]cc1-c1ccc(Oc2ccccc2)cc1 [Compound 203] | 4.28 nM | 185 nM
58 | CNCCN(C)Cc1n[nH]cc1-c1ccc(Oc2ccccc2)cc1 [Compound 204] | 3.15 nM | 69.3 nM
59 | CN(CCN)Cc1c[nH]nc1-c1ccc(Oc2cccc(F)c2)cc1 [Compound 205] | 2.44 nM | 286 nM
60 | CNCCN(C)Cc1cn(C)nc1-c1ccc(OC(C)C)c(Cl)c1 [Compound 206] | 7.07 nM | 349 nM
61 | CNCCN(C)Cc1cn(C)nc1-c1ccc(Oc2ccccc2)cc1 [Compound 207] | 6.16 nM | 627 nM
62 | CNCCN(C)Cc1cnn(C)c1-c1ccc(Oc2ccccc2)cc1 [Compound 208] | 4.16 nM | 279 nM
63 | CNCCN(C)Cc1c[nH]nc1-c1ccc(OCCCOC)cc1 [Compound 209] | 5.29 nM | 483 nM
64 | CNCCN(C)Cc1n[nH]cc1-c1ccc(OC(C)C)c(F)c1 [Compound 210] | 8.79 nM | 182 nM
65 | CC(C)Oc1ccc(-c2c[nH]nc2CN(C)CCN)cc1Cl [Compound 211] | 6.08 nM | 117 nM
66 | CNCCN(C)Cc1n[nH]cc1-c1ccc(OC(C)C)c(Cl)c1 [Compound 212] | 6.46 nM | 40.3 nM
67 | CCn1cc(CN(C)CCNC)c(-c2ccc(OC(C)C)cc2)n1 [Compound 213] | 26.6 nM | –
68 | CNCCN(C)Cc1cn(C2CCCC2)nc1-c1ccc(OC(C)C)cc1 [Compound 214] | 51.9 nM | –
69 | CNCCN(C)Cc1cn(C2CCOC2)nc1-c1ccc(OC(C)C)cc1 (stereo not shown) [Compound 215] | 82.2 nM | –
70 | CNCCN(C)Cc1cnn(C2CCOC2)c1-c1ccc(OC(C)C)cc1 (stereo not shown) [Compound 216] | 21.1 nM | –
71 | CNCCN(C)Cc1cn(Cc2ccccc2)nc1-c1ccc(OC(C)C)cc1 [Compound 217] | 18.7 nM | –
72 | C=CCn1cc(CN(C)CCNC)c(-c2ccc(OC(C)C)cc2)n1 [Compound 218] | 58.4 nM | –
73 | C=CCn1ncc(CN(C)CCNC)c1-c1ccc(OC(C)C)cc1 [Compound 219] | 18.4 nM | –
74 | CNCCN(C)Cc1c[nH]nc1-c1ccc(Oc2ccccc2)c(C#N)c1 [Compound 221] | 6.47 nM | 328 nM
75 | CN(CCN)Cc1c(-c2ccc(C#N)cc2)ncn1C [Compound 222] | 1260 nM | 8880 nM
76 | CN(CCN)Cc1c[nH]nc1-c1ccc(Oc2ccccc2)c(F)c1 [Compound 224, N^1-((3-(3-fluoro-4-phenoxyphenyl)-1H-pyrazol-4-yl)methyl)-N^1-methylethane-1,2-diamine] | 2.51 nM | 346 nM
